Source: US8431706B2, “1,2,3,4-tetrahydroqinoline derivative useful for the treatment of diabetes” (Eli Lilly and Company, priority 2011, dated 2013)

How the values were obtained:
[1] = target: T1, Gal4 PPARδ (Homo sapiens, UniProt Q03181); assay: Gal4 PPARδ reporter functional assay in CV1 cells; type: cell-based; details: examined up to 10 μM; luciferase reporter; 24 hours
T1 construct: expressed in transfected cells; host or cells: CV1 (African green monkey kidney)
T1 sequence (Q03181 211-439 limits assumed): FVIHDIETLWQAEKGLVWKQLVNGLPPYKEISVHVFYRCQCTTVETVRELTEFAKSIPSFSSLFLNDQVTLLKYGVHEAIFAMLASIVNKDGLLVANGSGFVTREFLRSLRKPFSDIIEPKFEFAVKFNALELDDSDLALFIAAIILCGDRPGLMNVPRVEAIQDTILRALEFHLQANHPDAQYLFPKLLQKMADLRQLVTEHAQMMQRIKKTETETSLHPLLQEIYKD
Source text: Gal4 PPARα, Gal4 PPARδ, and PPARγ reporter functional assays are also used to monitor the selectivity of the exemplified compound. CV1 cells, which are derived from the renal tissue of an African green monkey, are transfected with various receptor and reporter plasmids using Fugene. For the Gal4 PPARα and PPARδ assays, a reporter plasmid containing five tandem copies of the yeast transcription protein Gal4 response element, cloned upstream of a firefly luciferase gene driven by the major late promoter of adenovirus, is transfected together with a Simian Virus 40 (SV40) driven plasmid constitutively expressing a hybrid protein containing the Gal4 DNA binding domain (DBD), and either the PPARα or PPARδ ligand binding. For the PPARγ assay, plasmids encoding PPARγ and RXRα, both driven by a cytomegalovirus (CMV) promoter are transfected together with a plasmid containing luciferase reporter cDNA driven by the TK promoter and a receptor response element (2×PPRE). Cells are transfected in T225 cm^2 cell culture flasks in DMEM media with 5% charcoal-stripped FBS. […] After 24 hours incubation with the compound, cells are lysed and luciferase activity is determined as a measure of receptor activation by luminescence. […] The maximum percent stimulation is determined versus maximum stimulation obtained with 10 μM of an appropriate PPAR agonist reference compound. […]

[2] = target: human GPR40 (Homo sapiens, UniProt O14842); details: maximal response compared to the natural ligand, linoleic acid
Chain of human GPR40 (O14842 whole entry): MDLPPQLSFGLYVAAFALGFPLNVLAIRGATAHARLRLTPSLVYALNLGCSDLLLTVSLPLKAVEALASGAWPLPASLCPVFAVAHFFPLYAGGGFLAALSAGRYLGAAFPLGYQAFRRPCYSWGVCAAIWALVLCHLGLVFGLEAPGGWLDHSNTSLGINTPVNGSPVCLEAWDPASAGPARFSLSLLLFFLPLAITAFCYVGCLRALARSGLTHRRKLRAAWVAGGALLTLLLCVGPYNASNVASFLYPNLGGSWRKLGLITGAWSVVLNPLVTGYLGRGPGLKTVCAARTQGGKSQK

## CC#C[C@@H](CC(=O)O)c1ccc(OCc2ccc(CN3CCCc4cccc(OC)c43)s2)cc1 [Example 1, (3S)-3-[4-[[5-[(8-Methoxy-3,4-dihydro-2H-quinolin-1-yl)methyl]-2-thienyl]methoxy]phenyl]hex-4-ynoic acid]
[1]
  functional activation of PPARδ: No functional activation
[2]
  Percent efficacy: 84+/−24%
